From patent US20220331322A1, “COMPOUND FOR INHIBITING CELL DEATH” (Christian-Albrechts-Universität zu Kiel, priority 2019, published 2022)
Where a SMILES comes first, the peptide text is derived from it. The star is where a group is joined. Cbz = O=C(OCc1ccccc1)*; CH2F = FC*

What was measured:
L929 cells [1] = assay: TZ-induced RIPK1-dependent necroptosis, metabolites; assay type: cell-based, murine; conditions: L929, 10 ng/ml TNF-α + 25 μM zVAD, 24 h; 1 mM PEMA or PB
Method: Murine fibroblasts (L929 cells) were incubated for 24 h at 37° C. in the presence of (a) vehicle, (b) 1 mM PEMA or PB, respectively, (c) a combination of 10 ng/ml TNF-α+25 μM zVAD (TZ), and (d) a combination of TZ+PEMA or TZ+PB, respectively.

L929 cells [2] = assay: Time profile of blocking TZ-induced necroptosis, FACS (7-AAD/Annexin V); assay type: cell-based, murine; conditions: L929, 10 ng/ml TNF-α + 25 μM zVAD (TZ), 24 h; primidone 1 mM, Nec-1s 25 μM; one representative experiment of three
Method: The time profile of primidone for blocking cell death was compared to the one of Nec-1s. For this purpose, murine L929 cells were stimulated at 37° C. for 24 h with 10 ng/ml TNF-α+25 μM zVAD (TZ) in the presence of 1 mM primidone and 25 μM Nec-1s, respectively, for the indicated durations. Nec-1s and primidone were added 30 min before, 60 min and 180 min after the induction of RIPK1-mediated necroptosis, respectively. Cell death was quantified by FACS analysis using 7-amino-actinomycin D and phosphatidylserine accessibility (Annexin V staining) as markers.

L929 cells [3] = assay: Stimulation assay: TNF-α + 5Z-7 (± zVAD) induced RIPK1-dependent apoptosis/necroptosis; assay type: cell-based, murine; conditions: primidone 1 mM, Nec-1s 20 μM; for Block of RIPK1-dependent apoptosis (RDA): L929, 10 ng/ml TNF-α + 1 μM 5Z-7, 24 h, zVAD 25 μM
Method: Murine fibroblasts (L929 cells) were stimulated for 24 h at 37° C. in the presence of (a) vehicle, (b) 10 ng/ml tumor necrosis factor alpha (TNF-α), (c) 1 μM 5Z-7-oxozeaenol (5Z-7), (d) a combination of 10 ng/ml TNF-α and 1 μM 5Z-7, (e) a combination of 10 ng/ml TNF-α, 1 μM 5Z-7, and 20 μM necrostatin-1 (Nec-1s), (f) a combination of 10 ng/ml TNF-α, 1 μM 5Z-7, and 1 mM primidone (primidone is referred to in the Figures as compound A), (g) a combination of 10 ng/ml TNF-α, 1 μM 5Z-7, and 25 μM zVAD, (h) a combination of 10 ng/ml TNF-α, 1 μM 5Z-7, and 20 μM Nec-1s, and (i) a combination of 10 ng/ml TNF-α, 1 μM 5Z-7, 25 μM zVAD, and 1 mM primidone. TNF-α is a pro-inflammatory cytokine which triggers cell survival (canonical pathway) or cell death, depending on the cellular context. 5Z-7-oxozeaenol (5Z-7) is an inhibitor of transforming growth factor activated kinase 1 (TAK1). TAK1 is an intermediate in the signaling pathway of the TNF-receptor type 1 (TNFR1), and it is known that TAK1 is essential for the prevention of TNF-induced cell death. Cells in which TAK1 is disrupted or otherwise blocked are hypersensitive to TNF-α-induced cell death due to diminished prosurvival pathways including NF-κB and reduced antioxidant enzymes which results in activation of caspases. The compound zVAD is a pan-caspase inhibitor.

RIPK1 = molecular target: T1, RIPK1 (Homo sapiens, UniProt Q13546); assay: KINOMEscan profiling kinase assay
T1 sequence (Q13546 1-671): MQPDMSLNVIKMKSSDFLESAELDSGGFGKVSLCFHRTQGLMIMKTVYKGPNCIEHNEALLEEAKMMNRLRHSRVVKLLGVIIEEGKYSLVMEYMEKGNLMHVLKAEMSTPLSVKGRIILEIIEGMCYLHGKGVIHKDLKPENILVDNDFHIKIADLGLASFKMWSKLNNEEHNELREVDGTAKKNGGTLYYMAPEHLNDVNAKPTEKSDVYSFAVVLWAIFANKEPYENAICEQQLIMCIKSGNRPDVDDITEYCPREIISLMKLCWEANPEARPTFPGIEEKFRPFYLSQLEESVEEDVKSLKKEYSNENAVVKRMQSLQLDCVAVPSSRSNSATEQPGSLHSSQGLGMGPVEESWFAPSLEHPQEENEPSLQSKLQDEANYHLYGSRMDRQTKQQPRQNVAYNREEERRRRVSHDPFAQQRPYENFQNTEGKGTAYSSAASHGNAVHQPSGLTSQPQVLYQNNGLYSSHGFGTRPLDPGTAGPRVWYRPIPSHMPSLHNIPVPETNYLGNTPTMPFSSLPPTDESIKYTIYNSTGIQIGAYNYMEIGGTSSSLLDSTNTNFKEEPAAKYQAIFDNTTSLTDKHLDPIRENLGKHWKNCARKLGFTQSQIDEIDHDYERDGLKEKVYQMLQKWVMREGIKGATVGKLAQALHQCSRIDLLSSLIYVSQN
Method: To clarify, a KINOMEscan™ profiling kinase assay was performed. […] Dissociation constants (Kd) for test compound-kinase interactions are calculated by measuring the amount of kinase captured on the solid support as a function of the test compound concentration.

L929 cells [4] = assay: TLR3-mediated cell death induced by poly (I:C) + zVAD; assay type: cell-based, murine; conditions: L929, 1 μg/ml poly (I:C) + 25 μM zVAD, 24 h; primidone 1 mM, Nec-1s 20 μM
From the text: Cell death was induced by activation of the Toll-like receptor 3 (TLR3). TLR3 is mainly expressed on immune cells, where it senses pathogen-associated molecular patterns and initiates innate immune response. The TLR3 agonist poly (I:C) was developed to mimic pathogens infection and boost immune system activation. In experimental models, poly (I:C) is known to induce regulated cell death in cells expressing TLR3. To examine whether primidone also blocks TLR3-mediated cell death, murine L929 cells were stimulated for 24 h at 37° C. with vehicle (a), 1 μg/ml of the TLR3 ligand poly (I:C) alone (b) or in combination with 25 μM zVAD (c). In addition, cells were stimulated with 1 μg/ml poly (I:C), 25 μM zVAD and 20 μM Nec-1s (d) and with 1 μg/ml poly (I:C), 25 μM zVAD and 1 mM primidone (e).

Jurkat cells = assay: Anti-Fas antibody induced RIPK1-independent apoptosis; assay type: cell-based, human; conditions: 5 ng/ml anti-Fas antibody, 5 h, zVAD 25 μM, primidone 1 mM
Method: To this end, human T cells (Jurkat cells) were incubated for 5 h at 37° C. in the presence of (a) vehicle, (b) 5 ng/ml anti-Fas antibody, (c) 5 ng/ml anti-Fas antibody in combination with 25 μM of the pan-caspase inhibitor zVAD, and (d) 5 ng/ml anti-Fas antibody in combination with 1 mM primidone. The addition of the anti-Fas antibody induces apoptosis, a caspase-dependent form of regulated cell death that can be inhibited by the addition of the pan-caspase inhibitor zVAD.

With `CCC1(c2ccccc2)C(=O)NC(=O)NC1=O` [PB, 5-Ethyl-5-phenyl-1,3-diazinane-2,4,6-trione] the “Block of TZ-induced RIPK1-dependent cell death (necroptosis)” value (L929 cells [1]) was “can be blocked”.

In the case of `CN1C(=O)NC(Cc2c[nH]c3c(Cl)cccc23)C1=O` (stereo not shown) [Nec-1s], the “Cells still alive, compound added 60 min after induction of cell death” value (L929 cells [2]) is reported as 85.0%, the “Cells still alive, compound added 3 hours after induction of cell death” value (L929 cells [2]) is reported as 16.3% and the “Block of RIPK1-dependent necroptosis” value (L929 cells [3]; L929, 10 ng/ml TNF-α + 1 μM 5Z-7 + 25 μM zVAD, 24 h) is reported as “prevents RIPK-1 dependent cell death”. For the same compound, the “Block of RIPK1-dependent apoptosis (RDA)” value (L929 cells [3]) was “can be blocked”, the “Binding to RIPK1 kinase domain (prevention of kinase binding to immobilized ligand)” value (RIPK1) was “prevents the kinase from binding to an immobilized ligand” and the “Protection from RIPK1-mediated cell death induced by poly (I:C) and zVAD” value (L929 cells [4]) was “effectively protect cells”.

`CCC(C(N)=O)(C(N)=O)c1ccccc1` [PEMA, 2-Ethyl-2-phenylmalonamide] was tested, and the “Block of TZ-induced RIPK1-dependent cell death (necroptosis)” value (L929 cells [1]) was “can be blocked”.

`CC(NC(=O)C(NC(=O)OCc1ccccc1)C(C)C)C(=O)NC(CC(=O)O)C(=O)CF` (stereo not drawn) [zVAD] (Cbz-Val-Ala-Asp-CH2F; configuration not given here) was tested, and the “Block of RIPK1-dependent apoptosis (RDA)” value (L929 cells [3]) was “cell death occurs” and the “Inhibition of anti-Fas antibody induced cell death (caspase-dependent, RIPK1-independent)” value (Jurkat cells) was “completely blocked”.
